Measured values as given in BindingDB's records for patent US20240270732 (Chengdu Biobel Biotechnology Co., 2024).

Target: T1, Receptor-interacting serine/threonine-protein kinase 1 (Homo sapiens, UniProt Q13546)
T1 sequence (Q13546 whole entry): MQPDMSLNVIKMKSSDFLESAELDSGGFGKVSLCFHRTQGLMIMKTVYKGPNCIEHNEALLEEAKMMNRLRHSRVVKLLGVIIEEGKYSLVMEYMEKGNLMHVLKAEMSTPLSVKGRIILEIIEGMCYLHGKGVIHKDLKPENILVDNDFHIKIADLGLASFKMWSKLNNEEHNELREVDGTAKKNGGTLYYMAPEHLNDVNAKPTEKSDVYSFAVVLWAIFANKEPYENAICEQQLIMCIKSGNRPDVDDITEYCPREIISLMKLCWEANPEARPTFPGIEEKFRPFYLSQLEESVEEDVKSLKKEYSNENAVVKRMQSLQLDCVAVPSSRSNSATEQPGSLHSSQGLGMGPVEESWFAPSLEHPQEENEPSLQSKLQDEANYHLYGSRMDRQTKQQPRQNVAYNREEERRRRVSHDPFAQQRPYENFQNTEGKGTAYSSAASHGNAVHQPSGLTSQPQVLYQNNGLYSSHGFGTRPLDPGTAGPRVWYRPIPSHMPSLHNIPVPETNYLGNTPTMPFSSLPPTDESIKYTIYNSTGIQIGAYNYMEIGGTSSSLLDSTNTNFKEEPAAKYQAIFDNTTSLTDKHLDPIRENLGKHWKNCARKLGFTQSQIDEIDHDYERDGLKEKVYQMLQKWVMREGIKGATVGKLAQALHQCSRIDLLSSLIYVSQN
Assay: Inhibitory Activity Assay
Procedure: The compound of the present invention and the control compound were dissolved in the assay buffer (50 mM Hepes pH 7.5, 50 mM NaCl, 30 mM MgCl2, 1 mM DTT, 0.02% CHAPS, 0.5 mg/mL BSA), and diluted in a ratio of 1:1.5 using a 22-point titration (high concentration 2 μM), and then added to a 384-well plate. […] After completion of the reaction, 5 μL of ADP-Glo reagent containing 0.02% CHAPS was added to each well and incubated at room temperature for 1 h to terminate the kinase reaction and use up all remaining ATP. Then, 5 μL of ADP-Glo detection solution containing 0.02% CHAPS was added to each well and incubated at room temperature for 30 min to measure the emittance intensity.

## C[C@H]1Oc2ccc(C#CCCCCC#Cc3ccc4c(c3)N(C)C(=O)[C@@H](NC(=O)c3n[nH]c(Cc5ccccc5)n3)[C@@H](C)O4)cc2N(C)C(=O)[C@H]1NC(=O)c1n[nH]c(Cc2ccccc2)n1 [US20240270732, Compound I-79]
  IC50: 10.5 nM

## CN1C(=O)[C@@H](NC(=O)c2n[nH]c(Cc3ccccc3)n2)COc2ccc(C#CCOCCOCCOCCOCCOCC#Cc3ccc4c(c3)N(C)C(=O)[C@@H](NC(=O)c3n[nH]c(Cc5ccccc5)n3)CO4)cc21 [US20240270732, Compound I-82-1]
  IC50: 6.6 nM

## C#CCOCCOCCOCCOCCOCC#Cc1ccc2c(c1)N(C)C(=O)[C@@H](NC(=O)c1n[nH]c(Cc3ccccc3)n1)CO2 [US20240270732, Compound I-82-2]
  IC50: 7.15 nM

## C[C@H]1Oc2ccc(C#CCOCCOCCOCCOCCOCC#Cc3ccc4c(c3)N(C)C(=O)[C@@H](NC(=O)c3n[nH]c(Cc5ccccc5)n3)CO4)cc2N(C)C(=O)[C@H]1NC(=O)c1n[nH]c(Cc2ccccc2)n1 [US20240270732, Compound I-83]
  IC50: 8.18 nM

## C[C@H]1Oc2ccc(C#CCOCCOCCOCCOCCOCC#Cc3ccc4c(c3)N(C)C(=O)[C@@H](NC(=O)c3ncn(Cc5ccccc5)n3)[C@@H](C)O4)cc2N(C)C(=O)[C@H]1NC(=O)c1ncn(Cc2ccccc2)n1 [US20240270732, Compound I-84-1]
  IC50: 8.99 nM

## C#CCOCCOCCOCCOCCOCC#Cc1ccc2c(c1)N(C)C(=O)[C@@H](NC(=O)c1ncn(Cc3ccccc3)n1)[C@@H](C)O2 [US20240270732, Compound I-84-2]
  IC50: 8.03 nM

## CN1C(=O)[C@@H](NC(=O)c2ncn(Cc3ccccc3)n2)COc2ccc(C#CCOCCOCCOCCOCCOCC#Cc3ccc4c(c3)N(C)C(=O)[C@@H](NC(=O)c3ncn(Cc5ccccc5)n3)CO4)cc21 [US20240270732, Compound I-85-1]
  IC50: 7.49 nM

## C#CCOCCOCCOCCOCCOCC#Cc1ccc2c(c1)N(C)C(=O)[C@@H](NC(=O)c1ncn(Cc3ccccc3)n1)CO2 [US20240270732, Compound I-85-2]
  IC50: 6.63 nM

## C[C@H]1Oc2ccc(C#CCOCCOCCOCCOCCOCC#Cc3ccc4c(c3)N(C)C(=O)[C@@H](NC(=O)c3ncn(Cc5ccccc5)n3)CO4)cc2N(C)C(=O)[C@H]1NC(=O)c1ncn(Cc2ccccc2)n1 [US20240270732, Compound I-86]
  IC50: 7.91 nM

## C[C@H]1Oc2ccc(C#CCOCCOCCOCCOCCOCC#CC#CCOCCOCCOCCOCCOCC#Cc3ccc4c(c3)N(C)C(=O)[C@@H](NC(=O)c3n[nH]c(Cc5ccccc5)n3)[C@@H](C)O4)cc2N(C)C(=O)[C@H]1NC(=O)c1n[nH]c(Cc2ccccc2)n1 [US20240270732, Compound I-87]
  IC50: 6.32 nM

## CN1C(=O)[C@@H](NC(=O)c2n[nH]c(Cc3ccccc3)n2)COc2ccc(C#CCOCCOCCOCCOCCOCC#CC#CCOCCOCCOCCOCCOCC#Cc3ccc4c(c3)N(C)C(=O)[C@@H](NC(=O)c3n[nH]c(Cc5ccccc5)n3)CO4)cc21 [US20240270732, Compound I-88]
  IC50: 6.58 nM

## C[C@H]1Oc2ccc(C#CCN3CCN(CC#CC#CCN4CCN(CC#Cc5ccc6c(c5)N(C)C(=O)[C@@H](NC(=O)c5n[nH]c(Cc7ccccc7)n5)[C@@H](C)O6)CC4)CC3)cc2N(C)C(=O)[C@H]1NC(=O)c1n[nH]c(Cc2ccccc2)n1 [US20240270732, Compound I-91]
  IC50: 4.36 nM

## CN1C(=O)[C@@H](NC(=O)c2n[nH]c(Cc3ccccc3)n2)COc2ccc(C#CCN3CCN(CC#CC#CCN4CCN(CC#Cc5ccc6c(c5)N(C)C(=O)[C@@H](NC(=O)c5n[nH]c(Cc7ccccc7)n5)CO6)CC4)CC3)cc21 [US20240270732, Compound I-92]
  IC50: 5.89 nM

## C[C@H]1Oc2ccc(C#CCN3CCN(CC#CC#CCN4CCN(CC#Cc5ccc6c(c5)N(C)C(=O)[C@@H](NC(=O)c5ncn(Cc7ccccc7)n5)[C@@H](C)O6)CC4)CC3)cc2N(C)C(=O)[C@H]1NC(=O)c1ncn(Cc2ccccc2)n1 [US20240270732, Compound I-93]
  IC50: 5.73 nM

## CN1C(=O)[C@@H](NC(=O)c2ncn(Cc3ccccc3)n2)COc2ccc(C#CCN3CCN(CC#CC#CCN4CCN(CC#Cc5ccc6c(c5)N(C)C(=O)[C@@H](NC(=O)c5ncn(Cc7ccccc7)n5)CO6)CC4)CC3)cc21 [US20240270732, Compound I-94]
  IC50: 6.16 nM

## C[C@H]1Oc2ccc(C#CCCCN(C)CCCC#Cc3ccc4c(c3)N(C)C(=O)[C@@H](NC(=O)c3n[nH]c(Cc5ccccc5)n3)[C@@H](C)O4)cc2N(C)C(=O)[C@H]1NC(=O)c1n[nH]c(Cc2ccccc2)n1 [US20240270732, Compound I-95]
  IC50: 19.8 nM

## CN(CCCC#Cc1ccc2c(c1)N(C)C(=O)[C@@H](NC(=O)c1n[nH]c(Cc3ccccc3)n1)CO2)CCCC#Cc1ccc2c(c1)N(C)C(=O)[C@@H](NC(=O)c1n[nH]c(Cc3ccccc3)n1)CO2 [US20240270732, Compound I-96]
  IC50: 18.5 nM

## C[C@H]1Oc2ccc(C#CCCCN(C)CCCC#Cc3ccc4c(c3)N(C)C(=O)[C@@H](NC(=O)c3ncn(Cc5ccccc5)n3)[C@@H](C)O4)cc2N(C)C(=O)[C@H]1NC(=O)c1ncn(Cc2ccccc2)n1 [US20240270732, Compound I-97]
  IC50: 18.3 nM

## CN(CCCC#Cc1ccc2c(c1)N(C)C(=O)[C@@H](NC(=O)c1ncn(Cc3ccccc3)n1)CO2)CCCC#Cc1ccc2c(c1)N(C)C(=O)[C@@H](NC(=O)c1ncn(Cc3ccccc3)n1)CO2 [US20240270732, Compound I-98]
  IC50: 17 nM

## COCCOCCOCCOCCOCC#Cc1ccc2c(c1)N(C)C(=O)[C@@H](NC(=O)c1n[nH]c(Cc3ccccc3)n1)[C@@H](C)O2 [US20240270732, Compound I-99]
  IC50: 2.39 nM

## COCCOCCOCCOCCOCC#Cc1ccc2c(c1)N(C)C(=O)[C@@H](NC(=O)c1n[nH]c(Cc3ccccc3)n1)CO2 [US20240270732, Compound I-100]
  IC50: 1.47 nM

## COCCOCCOCCOCCOCC#Cc1ccc2c(c1)N(C)C(=O)[C@@H](NC(=O)c1ncn(Cc3ccccc3)n1)[C@@H](C)O2 [US20240270732, Compound I-101]
  IC50: 2.54 nM

## COCCOCCOCCOCCOCC#Cc1ccc2c(c1)N(C)C(=O)[C@@H](NC(=O)c1ncn(Cc3ccccc3)n1)CO2 [US20240270732, Compound I-102]
  IC50: 1.88 nM

## CC(O)C#Cc1ccc2c(c1)N(C)C(=O)[C@@H](NC(=O)c1n[nH]c(Cc3ccccc3)n1)[C@@H](C)O2 (stereo partly drawn) [US20240270732, Compound I-103]
  IC50: 10.2 nM

## C[C@H]1Oc2ccc(C#CCCO)cc2N(C)C(=O)[C@H]1NC(=O)c1n[nH]c(Cc2ccccc2)n1 [US20240270732, Compound I-105]
  IC50: 4.85 nM

## C[C@H]1Oc2ccc(C#CCCO)cc2N(C)C(=O)[C@H]1NC(=O)c1ncn(Cc2ccccc2)n1 [US20240270732, Compound I-106]
  IC50: 6.53 nM

## C[C@H]1Oc2ccc(C#CCCCCC(=O)O)cc2N(C)C(=O)[C@H]1NC(=O)c1n[nH]c(Cc2ccccc2)n1 [US20240270732, Compound I-107]
  IC50: 19.9 nM

## C[C@H]1Oc2ccc(C#CCCCCC(=O)O)cc2N(C)C(=O)[C@H]1NC(=O)c1ncn(Cc2ccccc2)n1 [US20240270732, Compound I-108]
  IC50: 20.5 nM

## C[C@H]1Oc2ccc(C#Cc3ccncc3)cc2N(C)C(=O)[C@H]1NC(=O)c1n[nH]c(Cc2ccccc2)n1 [US20240270732, Compound I-109]
  IC50: 4.26 nM

## C[C@H]1Oc2ccc(C#Cc3ccncc3)cc2N(C)C(=O)[C@H]1NC(=O)c1ncn(Cc2ccccc2)n1 [US20240270732, Compound I-110]
  IC50: 4.73 nM

## C[C@H]1Oc2ccc(C#Cc3cccnc3)cc2N(C)C(=O)[C@H]1NC(=O)c1n[nH]c(Cc2ccccc2)n1 [US20240270732, Compound I-111]
  IC50: 6.69 nM

## C[C@H]1Oc2ccc(C#Cc3cccc(S(=O)(=O)O)c3)cc2N(C)C(=O)[C@H]1NC(=O)c1n[nH]c(Cc2ccccc2)n1 [US20240270732, Compound I-113]
  IC50: 9.35 nM

## C[C@H]1Oc2ccc(C#Cc3cccc(S(=O)(=O)O)c3)cc2N(C)C(=O)[C@H]1NC(=O)c1ncn(Cc2ccccc2)n1 [US20240270732, Compound I-114]
  IC50: 11.7 nM

## C[C@H]1Oc2ccc(C#Cc3cccc([N+](=O)[O-])c3)cc2N(C)C(=O)[C@H]1NC(=O)c1n[nH]c(Cc2ccccc2)n1 [US20240270732, Compound I-115]
  IC50: 7.35 nM

## C[C@H]1Oc2ccc(C#Cc3cccc([N+](=O)[O-])c3)cc2N(C)C(=O)[C@H]1NC(=O)c1ncn(Cc2ccccc2)n1 [US20240270732, Compound I-116]
  IC50: 7.99 nM

## C[C@H]1Oc2ccc(C#Cc3cccc(N)c3)cc2N(C)C(=O)[C@H]1NC(=O)c1ncn(Cc2ccccc2)n1 [US20240270732, Compound I-118]
  IC50: 13.8 nM

## C#Cc1ccc2c(c1)N(C)C(=O)[C@@H](NC(=O)c1nc(Cc3ccccc3)n[nH]1)[C@@H](C)O2 [US20240270732, Compound I-119]
  IC50: 9.81 nM

## C#Cc1ccc2c(c1)N(C)C(=O)[C@@H](NC(=O)c1ncn(Cc3ccccc3)n1)[C@@H](C)O2 [US20240270732, Compound I-120]
  IC50: 10.8 nM
